Laboratory results from ChEMBL document CHEMBL1201862, “PubChem BioAssay data set” (2004).
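Step 1: Grow cells in 96-well plates. Step 2: Expose to compound for 48 hours at 5 concentrations. Step 3: Interpolate endpoints linearly; if unreached, use highest concentration. GI50 marks 50% less growth.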 The source made the active and inactive calls. No stated cut-off is given here; in the data, active = GI50 up to about 1.1 µM and inactive = higher.

What was measured:
Test in all cases: NCI-60 cell line screen, 48 h
MCF7 = system: MCF7
U-251 = system: U-251
SK-OV-3 = system: SK-OV-3
RPMI-8226 = system: RPMI-8226
CCRF-CEM = system: CCRF-CEM
ACHN = system: ACHN
COLO 205 = system: COLO 205
UACC-62 = system: UACC-62
A549 = system: A549
HL-60 = system: HL-60
OVCAR-8 = system: OVCAR-8
OVCAR-3 = system: OVCAR-3
MDA-MB-231 = system: MDA-MB-231
TK-10 = system: TK-10
PC-3 = system: PC-3
UACC-257 = system: UACC-257
NCI-H226 = system: NCI-H226
SF-539 = system: SF-539
SK-MEL-5 = system: SK-MEL-5
MOLT-4 = system: MOLT-4
NCI/ADR-RES = system: NCI/ADR-RES
Hs-578T = system: Hs-578T
SK-MEL-2 = system: SK-MEL-2
EKVX = system: EKVX
SW-620 = system: SW-620
786-0 = system: 786-0
SNB-19 = system: SNB-19
SF-295 = system: SF-295
SN12C = system: SN12C
SNB-75 = system: SNB-75
HCT-116 = system: HCT-116
K562 = system: K562
HCT-15 = system: HCT-15
HT-29 = system: HT-29
NCI-H23 = system: NCI-H23
HCC 2998 = system: HCC 2998
SR = system: SR
M14 = system: M14
NCI-H522 = system: NCI-H522
HOP-92 = system: HOP-92
Malme-3M = system: Malme-3M
CAKI-1 = system: CAKI-1
BT-549 = system: BT-549
IGROV-1 = system: IGROV-1
MDA-MB-435 = system: MDA-MB-435
UO-31 = system: UO-31
KM12 = system: KM12
MDA-N = system: MDA-N
A498 = system: A498
SK-MEL-28 = system: SK-MEL-28
OVCAR-5 = system: OVCAR-5
LOX IMVI = system: LOX IMVI
HOP-62 = system: HOP-62
OVCAR-4 = system: OVCAR-4
DU-145 = system: DU-145
NCI-H460 = system: NCI-H460
SF-268 = system: SF-268

Measured: GI50

CCOC(=O)CCN1C(=O)c2ccc(NC(=O)C(=O)O)cc2S1(=O)=O
inactive: MCF7 > 100 µM | U-251 > 100 µM | SK-OV-3 > 100 µM | RPMI-8226 > 100 µM | CCRF-CEM > 100 µM | ACHN > 100 µM | COLO 205 > 100 µM | UACC-62 > 100 µM | A549 > 100 µM | HL-60 > 100 µM | OVCAR-8 > 100 µM | OVCAR-3 > 100 µM | MDA-MB-231 > 100 µM | TK-10 > 100 µM | PC-3 > 100 µM | UACC-257 > 100 µM | NCI-H226 > 100 µM | SF-539 > 100 µM | SK-MEL-5 > 100 µM | MOLT-4 > 100 µM | NCI/ADR-RES > 100 µM | Hs-578T > 100 µM | SK-MEL-2 > 100 µM | EKVX > 100 µM | SW-620 > 100 µM | 786-0 > 100 µM | SNB-19 > 100 µM | SF-295 > 100 µM | SN12C > 100 µM | SNB-75 > 100 µM | HCT-116 > 100 µM | K562 > 100 µM | HT-29 > 100 µM | NCI-H23 > 100 µM | HCC 2998 > 100 µM | SR > 100 µM | M14 > 100 µM | NCI-H522 > 100 µM | HOP-92 > 100 µM | Malme-3M > 100 µM | CAKI-1 > 100 µM | BT-549 > 100 µM | IGROV-1 > 100 µM | MDA-MB-435 > 100 µM | UO-31 > 100 µM | KM12 > 100 µM | MDA-N > 100 µM | A498 > 100 µM | SK-MEL-28 > 100 µM | OVCAR-5 > 100 µM | LOX IMVI > 100 µM | HOP-62 > 100 µM | OVCAR-4 > 100 µM | DU-145 > 100 µM | NCI-H460 > 100 µM
> 100 µM: HCT-15

Nc1ccc(-c2nc3ccc(F)cc3s2)cc1
inactive: U-251 31.4 µM | RPMI-8226 18.6 µM | CCRF-CEM 19.1 µM | ACHN 21 µM | COLO 205 17.9 µM | UACC-62 16.6 µM | A549 28.1 µM | OVCAR-8 48.3 µM | OVCAR-3 22.5 µM | MDA-MB-231 25.3 µM | TK-10 26.6 µM | SF-268 37.3 µM | PC-3 17.2 µM | UACC-257 43.2 µM | SF-539 36.4 µM | SK-MEL-5 15.3 µM | MOLT-4 > 100 µM | NCI/ADR-RES 33.9 µM | Hs-578T 20.2 µM | SK-MEL-2 19.8 µM | EKVX 32 µM | SW-620 51.9 µM | 786-0 35.4 µM | SNB-19 32.8 µM | SF-295 25.5 µM | SN12C 33 µM | SNB-75 31.5 µM | HCT-116 36.6 µM | K562 43.7 µM | HT-29 38.2 µM | NCI-H23 31.3 µM | SR 77.3 µM | M14 36.4 µM | NCI-H522 30.8 µM | HOP-92 29.4 µM | Malme-3M 51.8 µM | CAKI-1 31.1 µM | BT-549 39.4 µM | MDA-MB-435 25.9 µM | UO-31 26 µM | KM12 25.2 µM | MDA-N 39.4 µM | A498 30 µM | SK-MEL-28 60.1 µM | LOX IMVI 28.7 µM | HOP-62 29.5 µM | DU-145 23.7 µM
35.8 µM: HCT-15
